From US20220016060A1, “USE OF SODIUM 2-(3-PENTYLPHENYL)ACETATE IN THE TREATMENT OF ALSTRÖM SYNDROME” (LIMINAL BIOSCIENCES LIMITED, priority 2018, published 2022)
“And” between values parts separate entries of the source, which are not always exact repeats. Equal values may be shown once.

What was measured:
Format in all cases: in vivo, human
ALMS patients [1] = experiment: Glycated hemoglobin (HbA1c); settings: for Change from Baseline HbA1c, Mean / Change from Baseline HbA1c, Median / HbA1c: 800 mg daily oral; for HbA1c: individual subjects
Experimental: The study was a Phase 2, single-centre, single-arm, open-label study of sodium 2-(3-pentylphenyl)acetate administered at a total daily oral dose of 800 mg for up to 72 weeks in subjects with ALMS was undertaken. The initial duration of the study was 24 weeks, and subjects were offered to enrol into an extension phase of 36 or 48 weeks. The schedule of study procedures for the enrolment, intervention, and assessments for participants is outlined in FIG. 1. Sodium 2-(3-pentylphenyl)acetate was formulated in soft gelatine capsules containing 200 mg of Sodium 2-(3-pentylphenyl)acetate (amorphous powder) per capsule, polyethylene glycol 400, National Formulary (NF), hydrochloric acid (for pH adjustment), and water. Glycated hemoglobin (HbA1c) is measured primarily to determine the three-month average blood sugar level, and is used as a diagnostic test for diabetes mellitus and as an assessment test for glycemic control in people with diabetes. HbA1c was assessed in ALMS patients treated with sodium 2-(3-pentylphenyl)acetate. There was a statistically significant mean decrease of 0.53% (p=0.0144) in HbA1c from baseline after 12 weeks of treatment (Table 16).

ALMS patients [2] = experiment: Cardiac MRI of left ventricular function (LVESV, LVEDV); settings: for Change from Baseline LVEDV, Mean (SD) / Change from Baseline LVEDV, Median / Change from Baseline LVESV, Mean (SD) / Change from Baseline LVESV, Median: 800 mg daily oral
Experimental: (§1) The study was a Phase 2, single-centre, single-arm, open-label study of sodium 2-(3-pentylphenyl)acetate administered at a total daily oral dose of 800 mg for up to 72 weeks in subjects with ALMS was undertaken. The initial duration of the study was 24 weeks, and subjects were offered to enrol into an extension phase of 36 or 48 weeks. The schedule of study procedures for the enrolment, intervention, and assessments for participants is outlined in FIG. 1.
Sodium 2-(3-pentylphenyl)acetate was formulated in soft gelatine capsules containing 200 mg of Sodium 2-(3-pentylphenyl)acetate (amorphous powder) per capsule, polyethylene glycol 400, National Formulary (NF), hydrochloric acid (for pH adjustment), and water.
The effect of sodium 2-(3-pentylphenyl)acetate on heart histology in ALMS patients was assessed by measuring left ventricular function (LVF). LVF measurements permit to quantify how well the left ventricle is able to pump blood through the body with each heartbeat, and is also a prognostic factor in acute myocardial infarction.

ALMS patients [3] = experiment: Fasting plasma glucose (FPG); settings: for Change from Baseline FPG, Mean / Change from Baseline FPG, Median / FPG: 800 mg daily oral; for FPG: individual subjects
Experimental: as §1, with “1. Sodium 2-(3-pentylphenyl)acetate was formulated in soft gelatine capsules containing 200 mg of Sodium 2-(3-pentylphenyl)acetate (amorphous powder) per capsule, polyethylene glycol 400, National Formulary (NF), hydrochloric acid (for pH adjustment), and water.” for “1.”

ALMS patients [4] = experiment: HOMA-B based on C-peptide and fasting plasma glucose; settings: for Change from Baseline HOMA-B Based on C-Peptide and FPG, Mean / Change from Baseline HOMA-B Based on C-Peptide and FPG, Median: 800 mg
Experimental: The study was a Phase 2, single-centre, single-arm, open-label study of sodium 2-(3-pentylphenyl)acetate administered at a total daily oral dose of 800 mg for up to 72 weeks in subjects with ALMS was undertaken. The initial duration of the study was 24 weeks, and subjects were offered to enrol into an extension phase of 36 or 48 weeks. The schedule of study procedures for the enrolment, intervention, and assessments for participants is outlined in FIG. 1. Sodium 2-(3-pentylphenyl)acetate was formulated in soft gelatine capsules containing 200 mg of Sodium 2-(3-pentylphenyl)acetate (amorphous powder) per capsule, polyethylene glycol 400, National Formulary (NF), hydrochloric acid (for pH adjustment), and water. E) Homeostasis Model Assessment for Steady State Beta-Cell Function Based on C-Peptide and Fasting Plasma Glucose (HOMA-B [C-Peptide/FPG]) The effect of sodium 2-(3-pentylphenyl)acetate on HOMA-B (C-peptide/FPG) was assessed, and the results are presented in Table 24.

[5] = Subject 826-001-001, 204-day break in treatment
[6] = Subject 826-001-007, 32-day break in treatment

## CCCCCc1cccc(CC(=O)[O-])c1.[Na+] [sodium 2-(3-pentylphenyl)acetate]
ALMS patients [1]; 8/12 subjects
  subjects in whom HbA1c decreased or did not change from baseline: 66.7%
ALMS patients [1]; EP Week 12 (Week 36), N=10
  Change from Baseline HbA1c, Mean: 0.24%
  Change from Baseline HbA1c, Median: 0.00%
ALMS patients [1]; EP Week 24 (Week 48), N=10
  Change from Baseline HbA1c, Mean: −0.28%
  Change from Baseline HbA1c, Median: −0.30%
ALMS patients [1]; EP Week 36 (Week 60), N=9
  Change from Baseline HbA1c, Mean: −0.18%
  Change from Baseline HbA1c, Median: −0.10%
ALMS patients [1]; EP Week 48 (Week 72), N=3
  Change from Baseline HbA1c, Mean: 0.13%
  Change from Baseline HbA1c, Median: 0.10%
ALMS patients [1]; [5]
  HbA1c increase above baseline by the last study visit: 1%
ALMS patients [1]; Subjects 826-001-007, 826-001-009 and 826-001-014
  HbA1c reduction below baseline: 1%
ALMS patients [1]; Week 12, N=12
  Change from Baseline HbA1c, Mean: −0.53%
  Change from Baseline HbA1c, Median: −0.55%
ALMS patients [1]; Week 24, N=12
  Change from Baseline HbA1c, Mean: −0.24%
  Change from Baseline HbA1c, Median: −0.05%
ALMS patients [1]; after 12 weeks of treatment, p=0.0144
  mean decrease in HbA1c from baseline: 0.53%
ALMS patients [1]; EP Week 12 (Week 36)
  HbA1c: 12.7% and 5.1% and 5.4% (3×) and 7.5% and 7.3% and 6.4% and 6.2% and 12%
ALMS patients [1]; EP Week 24 (Week 48)
  HbA1c: 10.6% (2×) and 4.9% and 4.7% and 5.7% and 6.8% and 5.4% and 6.5% and 6.3% and 6.7%
ALMS patients [1]; EP Week 36 (Week 60)
  HbA1c: 11.2% and 5.1% and 5.0% and 7.5% and 5.4% and 6.8% (2×) and 6.4% and 9.1%
ALMS patients [1]; EP Week 48 (Week 72)
  HbA1c: 11.1% and 5.0% and 4.9%
ALMS patients [1]; Week 12
  HbA1c: 10.1% and 5.3% and 5.0% and 5.7% (2×) and 8.2% and 5.5% and 6.7% and 6.1% and 10.6% and 6.4% and 6.5%
ALMS patients [1]; Week 24
  HbA1c: 11.1% and 5.4% (2×) and 4.8% and 5.6% and 9.1% and 7.0% and 6.2% and 10.0% and 6.6% and 8.6% and 6.1%
ALMS patients [2]; 9/12 subjects
  subjects in whom LVESV increased or did not change from baseline: 75.0%
ALMS patients [2]; 10/12 subjects
  subjects in whom LVEDV increased from baseline: 83.3%
ALMS patients [2]; EP Week 36 (Week 60), N=4
  Change from Baseline LVEDV, Mean (SD): 7.75 (3.948) mL
  Change from Baseline LVEDV, Median: 8.50 mL
  Change from Baseline LVESV, Mean (SD): 3.75 (2.500) mL
  Change from Baseline LVESV, Median: 3.50 mL
ALMS patients [2]; Week 24, N=10
  Change from Baseline LVEDV, Mean (SD): 4.40 (16.574) mL
  Change from Baseline LVEDV, Median: 5.00 mL
  Change from Baseline LVESV, Mean (SD): 0.70 (9.650) mL
  Change from Baseline LVESV, Median: 3.00 mL
ALMS patients [2]; after 60 weeks of treatment
  change in LVESV from baseline: strong trend toward an increase
ALMS patients [2]; after 60 weeks of treatment, p=0.0294
  mean increase in LVEDV from baseline: 7.75 mL
ALMS patients [2]; subject 826-001-015
  LVESV relative to normal range: Normalization of LVESV after treatment
ALMS patients [2]; subjects 826-001-002 and 826-001-004, below normal at baseline
  LVEDV and LVESV relative to normal range: within the normal range after the treatment period
ALMS patients [3]; EP Week 12 (Week 36), N=10
  Change from Baseline FPG, Mean: 0.63 mmol/L
  Change from Baseline FPG, Median: -0.10 mmol/L
ALMS patients [3]; EP Week 24 (Week 48), N=10
  Change from Baseline FPG, Mean: 0.70 mmol/L
  Change from Baseline FPG, Median: -0.10 mmol/L
ALMS patients [3]; EP Week 36 (Week 60), N=9
  Change from Baseline FPG, Mean: 1.49 mmol/L
  Change from Baseline FPG, Median: 0.00 mmol/L
ALMS patients [3]; EP Week 48 (Week 72), N=3
  Change from Baseline FPG, Mean: -0.93 mmol/L
  Change from Baseline FPG, Median: 0.00 mmol/L
ALMS patients [3]; [5]
  increase in FPG from baseline: 7.4 mmol/L
ALMS patients [3]; [6]
  increase in FPG from baseline: 7.9 mmol/L
ALMS patients [3]; Week 12, N=11
  Change from Baseline FPG, Mean: 0.30 mmol/L
  Change from Baseline FPG, Median: -0.40 mmol/L
ALMS patients [3]; Week 24, N=12
  Change from Baseline FPG, Mean: 0.33 mmol/L
  Change from Baseline FPG, Median: 0.30 mmol/L
ALMS patients [3]; EP Week 12 (Week 36)
  FPG: 18.0 mmol/L and 4.8 mmol/L and 4.3 mmol/L and 5.2 mmol/L and 9.1 mmol/L and 4.4 mmol/L and 6.5 mmol/L and 6.6 mmol/L and 5.5 mmol/L and 19.9 mmol/L
ALMS patients [3]; EP Week 24 (Week 48)
  FPG: 23.3 mmol/L and 3.8 mmol/L and 4.7 mmol/L and 6.9 mmol/L and 10.2 mmol/L and 4.8 mmol/L and 5.7 mmol/L and 6.2 mmol/L and 5.6 mmol/L and 13.8 mmol/L
ALMS patients [3]; EP Week 36 (Week 60)
  FPG: 22.7 mmol/L and 5.0 mmol/L and 4.6 mmol/L and 13.8 mmol/L and 5.3 mmol/L (2×) and 4.7 mmol/L and 8.6 mmol/L and 14.9 mmol/L
ALMS patients [3]; EP Week 48 (Week 72)
  FPG: 12.5 mmol/L and 5.5 mmol/L and 4.7 mmol/L
ALMS patients [3]; Week 12
  FPG: 22.8 mmol/L and 4.6 mmol/L and 4.3 mmol/L and 5.3 mmol/L and 16.9 mmol/L and 7.0 mmol/L and 5.5 mmol/L and 17.6 mmol/L and 6.5 mmol/L and 5.0 mmol/L and 4.7 mmol/L
ALMS patients [3]; Week 24
  FPG: 12.9 mmol/L and 4.9 mmol/L and 4.7 mmol/L and 5.7 mmol/L and 11.1 mmol/L and 4.8 mmol/L and 7.2 mmol/L and 7.4 mmol/L and 22.6 mmol/L and 6.5 mmol/L and 13.5 mmol/L and 6.1 mmol/L
ALMS patients [4]; EP Week 12 (Week 36), N 10
  Change from Baseline HOMA-B Based on C-Peptide and FPG, Mean: 1.70
  Change from Baseline HOMA-B Based on C-Peptide and FPG, Median: 16.50
ALMS patients [4]; EP Week 24 (Week 48), N 9
  Change from Baseline HOMA-B Based on C-Peptide and FPG, Mean: 24.57
  Change from Baseline HOMA-B Based on C-Peptide and FPG, Median: −1.90
ALMS patients [4]; EP Week 36 (Week 60), N 8
  Change from Baseline HOMA-B Based on C-Peptide and FPG, Mean: 1.42
  Change from Baseline HOMA-B Based on C-Peptide and FPG, Median: 8.00
ALMS patients [4]; EP Week 48 (Week 72), N 3
  Change from Baseline HOMA-B Based on C-Peptide and FPG, Mean: 60.17
  Change from Baseline HOMA-B Based on C-Peptide and FPG, Median: 89.40
ALMS patients [4]; Week 12, N 11
  Change from Baseline HOMA-B Based on C-Peptide and FPG, Mean: 52.58
  Change from Baseline HOMA-B Based on C-Peptide and FPG, Median: 35.60
ALMS patients [4]; Week 24, N 12
  Change from Baseline HOMA-B Based on C-Peptide and FPG, Mean: −1.60
  Change from Baseline HOMA-B Based on C-Peptide and FPG, Median: 0.60
ALMS patients [4]; 9/12 subjects
  subjects in whom HOMA-B (C-peptide/FPG) increased from baseline: 75.0%
ALMS patients [4]; [5]
  reduction in HOMA-B (C-peptide/FPG): 62.4
ALMS patients [4]; [6]
  reduction in HOMA-B (C-peptide/FPG): 33.4
ALMS patients [4]; Subject 826-001-013, 30-day break in treatment
  reduction in HOMA-B (C-peptide/FPG): 96.7
